From patent US20230416239A1, “COMPOUNDS AND METHODS FOR TREATING A CYTOKINE-MEDIATED DISEASE” (CONSERVATOIRE NATIONAL DES ARTS ET MÉTIERS, priority 2020, published 2023)

Experiments:
IL-6 = IL-6 (Homo sapiens, UniProt P05231); test: Immunoassay binding test, IL-6 (gp130 receptor, IL-6Ra present); conditions: IL-6Ra 200 ng/ml
Summary of the method: (§1)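 Compounds (final 100 to 0.78 μM) were preincubated 2 h at 37 °C with a fixed amount of cytokine; for IL-6, IL-6Ra was also present at 200 ng/ml final. Mixtures were then incubated overnight at 4 °C on receptor-coated plates. Bound cytokine was detected with biotinylated anti-cytokine antibody and avidin-HRP, read as OD at 450 nm.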

IL-13 = IL-13 (Homo sapiens, UniProt P35225); test: Immunoassay binding test, IL-13; conditions: for IC50: IL-13 400 ng/ml, receptor 100 ng/ml, read-out: BINDING IL13 IC50
Summary of the method: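 Receptor-coated plates; compounds (100 to 0.78 μM final) preincubated 2 h at 37° C with fixed cytokine, then bound to receptor overnight at 4° C. Bound cytokine detected with biotinylated anti-cytokine antibody and avidin-HRP, OD 450 nm.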

IL-4 = biological target: T1, IL-4 (Homo sapiens, UniProt P05112); test: Immunoassay binding test, IL-4; conditions: for IC50: IL-4 400 ng/ml, receptor 100 ng/ml, read-out: BINDING IL4 IC50
T1 sequence (P05112 25-153): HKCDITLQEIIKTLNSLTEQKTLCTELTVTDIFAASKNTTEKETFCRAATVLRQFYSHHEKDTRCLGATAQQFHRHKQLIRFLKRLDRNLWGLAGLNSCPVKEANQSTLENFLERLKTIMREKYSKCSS
Summary of the method: as §1

TNFa/TNFRI interaction = TNFa/TNFRI interaction (Homo sapiens, UniProt P01375); test: TNFa/TNFRI interaction displacement test; assay type: binding; conditions: compounds at 50 μM; human TNFRI 100 ng/ml
Summary of the method: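 Plates coated overnight at 4° C with human TNFRI (100 ng/ml) and blocked with 2% BSA, then test mixtures were incubated overnight at 4° C. Bound cytokine detected with biotinylated anti-cytokine antibody (2 h, 37° C) and avidin-HRP, read as OD at 450 nm.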

TNFα = TNFα (Homo sapiens, UniProt P01375); test: Immunoassay binding test, TNFa; conditions: compounds 100 to 0.78 μM; TNFα 10 ng/ml, receptor 100 ng/ml; read-out: BINDING TNF IC50
Summary of the method: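 ELISA-type binding test: receptor-coated plates blocked with 2% BSA, then cytokine (six-point dilution series) preincubated 2 h at 37 °C and bound overnight at 4 °C. Detection used biotinylated anti-cytokine antibody and avidin-HRP, read as OD at 450 nm. For IL-6, IL-6Ra was present at 200 ng/ml final.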

IL-6, sequence (P05231 30-212, species assumed): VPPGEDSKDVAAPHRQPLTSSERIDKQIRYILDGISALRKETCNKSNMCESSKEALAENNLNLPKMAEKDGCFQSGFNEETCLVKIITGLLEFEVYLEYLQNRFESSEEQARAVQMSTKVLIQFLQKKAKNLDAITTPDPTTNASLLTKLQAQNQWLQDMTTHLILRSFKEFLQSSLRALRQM
IL-13, sequence (P35225 25-146, species assumed): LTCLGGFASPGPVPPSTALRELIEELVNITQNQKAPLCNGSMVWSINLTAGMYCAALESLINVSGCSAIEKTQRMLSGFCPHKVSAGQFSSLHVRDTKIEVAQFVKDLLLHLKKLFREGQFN
TNFa/TNFRI interaction, sequence (P01375 77-233 limits assumed): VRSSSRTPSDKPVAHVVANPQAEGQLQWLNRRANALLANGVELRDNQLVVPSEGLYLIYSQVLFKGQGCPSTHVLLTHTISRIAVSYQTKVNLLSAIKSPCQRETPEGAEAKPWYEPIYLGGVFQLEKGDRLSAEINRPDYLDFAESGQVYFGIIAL
TNFα, sequence (P01375 77-233 limits assumed, species assumed): as the sequence (P01375 77-233 limits assumed) above

Row | BINDING IL6 % Neutra at 100 μM (IL-6) | BINDING IL13 % Neutra at 100 μM (IL-13) | IC50 (IL-13) | BINDING IL4 % Neutra at 100 μM (IL-4) | IC50 (IL-4) | Displacement (%) (TNFa/TNFRI interaction) | IC50 (TNFα) | Structure (SMILES)
1 | 0% | 81.6% | 17.3 µM | 86.0% | 4.2 µM | 219% | 10 µM | CCCCN(CCCCN(Cc1cccnc1F)Cc1cn(S(=O)(=O)c2ccccc2)c2ccccc12)C1CCCCC1 [Compound 68, N′-butyl-N′-cyclohexyl-N^4-((2-fluoropyridin-3-yl)methy)-N^4-((1-(phenylsulfonyl)-1H-indol-3-yl)methyl)butane-1,4-diamine]
2 | 0% | 79.7% | > 50 µM | 93.6% | 5.6 µM | 121% | 12.1 µM | O=S(=O)(c1ccccc1)n1cc(CN(CCCCNC2CCC2)Cc2cccnc2F)c2ccccc21 [Compound 69, N′-cyclobutyl-N^4-((2-fluoropyridin-3-yl)methyl)-N^4-((1-(phenylsulfonyl)-1H-indol-3-yl)methyl)butane-1,4-diamine]
3 | 1% | 69.6% | > 100 µM | 92.4% | 13.5 µM | 126% | 11.5 µM | CN(CCCCN(Cc1cccnc1F)Cc1cn(S(=O)(=O)c2ccccc2)c2ccccc12)C1CCC1 [Compound 70, N′-cyclobutyl-N^4-((2-fluoropyridin-3-yl)methyl)-N′-methyl-N^4-((1-(phenylsulfonyl)-1H-indol-3-yl)methyl)butane-1,4-diamine]
4 | 3% | 92.1% | > 50 µM | 89.8% | 8.1 µM | 208% | 9.7 µM | CN(CCCCN(Cc1cccnc1F)Cc1cn(S(=O)(=O)c2ccccc2)c2ccccc12)C1CCCC1 [Compound 72, N′-cyclopentyl-N^4-((2-fluoropyridin-3-yl)methyl)-N′-methyl-N^4-((1-(phenylsulfonyl)-1H-indol-3-yl)methyl)butane-1,4-diamine]
5 | 0% | 87.2% | 14.9 µM | 91.0% | 6 µM | 161% | 8.4 µM | O=S(=O)(c1ccccc1)n1cc(CN(CCCCNC2CCCCCC2)Cc2cccnc2F)c2ccccc21 [Compound 73, N′-cycloheptyl-N^4-((2-fluoropyridin-3-yl)methyl)-N^4-((1-(phenylsulfonyl)-1H-indol-3-yl)methyl)butane-1,4-diamine]
6 | 0% | 87.3% | > 50 µM | 91.9% | 5.7 µM | 160% | 6.6 µM | CN(CCCCN(Cc1cccnc1F)Cc1cn(S(=O)(=O)c2ccccc2)c2ccccc12)C1CCCCCC1 [Compound 74, N′-cycloheptyl-N^4-((2-fluoropyridin-^3-yl)methyl)-N′-methyl-N^4-((1-(phenylsulfonyl)-1H-indol-^3-yl)methyl)butane-1,4-diamine]
7 | 0% | 85.8% | > 50 µM | 92.0% | 8.5 µM | 147% | 11.2 µM | O=S(=O)(c1ccccc1)n1cc(CN(CCCCNC2CCCCCCC2)Cc2cccnc2F)c2ccccc21 [Compound 75, N′-cyclooctyl-N^4-((2-fluoropyridin-3-yl)methyl)-N^4-((1-(phenylsulfonyl)-1H-indol-3-yl)methyl)butane-1,4-diamine]
8 | 0% | 0% | – | 13.7% | > 100 µM | 35% | > 50 µM | NS(=O)(=O)NCCCCN(Cc1cccnc1F)Cc1cn(S(=O)(=O)c2ccccc2)c2ccccc12 [Compound 77]
9 | 0% | 0% | – | 33.5% | > 50 µM | 11% | > 50 µM | CN(C)S(=O)(=O)NCCCCN(Cc1cccnc1F)Cc1cn(S(=O)(=O)c2ccccc2)c2ccccc12 [Compound 78]
10 | 1% | 0% | – | 31.0% | > 100 µM | 3% | > 50 µM | CCN(CC)S(=O)(=O)NCCCCN(Cc1cccnc1F)Cc1cn(S(=O)(=O)c2ccccc2)c2ccccc12 [Compound 79]
11 | 0% | 0% | – | 29.1% | > 100 µM | 0% | > 50 µM | O=S(=O)(NCCCCN(Cc1cccnc1F)Cc1cn(S(=O)(=O)c2ccccc2)c2ccccc12)N1CCCCC1 [Compound 80]
12 | 1% | 0% | – | 39.3% | > 50 µM | 0% | > 50 µM | O=S(=O)(NCCCCN(Cc1cccnc1F)Cc1cn(S(=O)(=O)c2ccccc2)c2ccccc12)N1CCCCCC1 [Compound 81]
13 | 5% | 0% | – | 27.9% | > 100 µM | 18% | > 50 µM | O=S(=O)(NCCCCN(Cc1cccnc1F)Cc1cn(S(=O)(=O)c2ccccc2)c2ccccc12)N1CCOCC1 [Compound 82]
14 | 3% | 0% | – | 0% | – | 111% | 21.2 µM | O=C(NCCCCN(Cc1cccnc1F)Cc1cn(S(=O)(=O)c2ccccc2)c2ccccc12)N1CCOCC1 [Compound 84]
15 | 3% | 0% | – | 36.6% | > 100 µM | 45% | 44.3 µM | CC(=O)NCCCCN(Cc1cccnc1F)Cc1cn(S(=O)(=O)c2ccccc2)c2ccccc12 [Compound 85]
16 | 6% | 87.9% | > 50 µM | 92.6% | 4.9 µM | 188% | 5 µM | O=S(=O)(c1ccccc1)n1cc(CN(CCCCN(C2CCC2)C2CCC2)Cc2cccnc2F)c2ccccc21 [Compound 86]
17 | 6% | 94.2% | 8.2 µM | 95.5% | 4.4 µM | 28% | 18.8 µM | NCCCCN(Cc1cn(S(=O)(=O)c2ccccc2)c2ccccc12)Cc1cn(S(=O)(=O)c2ccccc2)c2ccccc12 [Compound 87]
18 | 9% | 8% | – | 69.0% | 5.3 µM | 5% | > 50 µM | O=S(=O)(c1ccccc1)n1cc(CN(CCCCNCc2cccnc2F)Cc2cn(S(=O)(=O)c3ccccc3)c3ccccc23)c2ccccc21 [Compound 88]
19 | 0% | 94.7% | 2.6 µM | 95.6% | 2 µM | 63% | 15 µM | O=S(=O)(c1ccccc1)n1cc(CN(CCCCNC2CCCCC2)Cc2cn(S(=O)(=O)c3ccccc3)c3ccccc23)c2ccccc21 [Compound 89]
20 | 0% | 69.7% | > 50 µM | 94.0% | 5.2 µM | 137% | 15.5 µM | CN(C)CCCCCN(Cc1cccc(F)n1)Cc1cn(S(=O)(=O)c2ccccc2)c2ccccc12 [Compound 90]

Row | Structure (SMILES) | BINDING IL6 % Neutra at 100 μM (IL-6) | BINDING IL13 % Neutra at 100 μM (IL-13) | IC50 (IL-13) | BINDING IL4 % Neutra at 100 μM (IL-4) | IC50 (IL-4) | Displacement (%) (TNFa/TNFRI interaction) | IC50 (TNFα)
21 | CN1CCN(C(=O)NCCCCN(Cc2cccnc2F)Cc2cn(S(=O)(=O)c3ccccc3)c3ccccc23)CC1 [Compound 83] | 0% | 1% | – | 84.6% | > 50 µM | 93% | 21 µM
